# Values quoted from earlier work in US20210177743A1, “Self-Assembling Multi-Domain Peptide Based Hydrogels” (New Jersey Institute of Technology, priority 2018, published 2021).
# System: hepatocytes with low LDL receptors due to PCSK9
sequence,measurement,value
TVFTSWEEYLDWV [Pep2-8],LDL receptors on the cell surface,restore the receptors to the cell surface
